Assay results reported in ChEMBL document CHEMBL1201862, “PubChem BioAssay data set” (2004).
“And” between values parts separate entries of the source, which are not always exact repeats. Equal values may be shown once. The source made the active and inactive calls.

What was measured:
Cytochrome P450 2C19 = Cytochrome P450 2C19 (Homo sapiens, UniProt P33261); experiment: Cytochrome panel assay with activity outcomes. Panel member name: p450-cyp2c19 Compounds with AC50 equal or less than 10 uM are considered active; format: functional
Chain of Cytochrome P450 2C19 (P33261 whole entry): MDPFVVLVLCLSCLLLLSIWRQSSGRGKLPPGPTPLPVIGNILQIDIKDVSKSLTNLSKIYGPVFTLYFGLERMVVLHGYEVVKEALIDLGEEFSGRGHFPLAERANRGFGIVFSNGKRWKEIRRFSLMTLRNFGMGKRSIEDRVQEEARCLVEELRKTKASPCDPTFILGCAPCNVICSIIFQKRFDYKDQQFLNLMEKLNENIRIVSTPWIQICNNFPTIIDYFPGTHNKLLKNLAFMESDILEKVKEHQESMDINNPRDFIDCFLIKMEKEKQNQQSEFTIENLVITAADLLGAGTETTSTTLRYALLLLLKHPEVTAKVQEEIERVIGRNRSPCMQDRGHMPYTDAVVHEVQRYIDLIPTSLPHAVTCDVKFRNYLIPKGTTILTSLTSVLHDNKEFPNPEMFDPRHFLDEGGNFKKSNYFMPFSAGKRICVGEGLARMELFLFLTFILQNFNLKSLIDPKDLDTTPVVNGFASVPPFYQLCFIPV

Cytochrome P450 1A2 = molecular target: T1, Cytochrome P450 1A2 (Homo sapiens, UniProt P05177);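 further: PubChem cytochrome P450 panel assay, CYP1A2 panel member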
T1 sequence (P05177 whole entry): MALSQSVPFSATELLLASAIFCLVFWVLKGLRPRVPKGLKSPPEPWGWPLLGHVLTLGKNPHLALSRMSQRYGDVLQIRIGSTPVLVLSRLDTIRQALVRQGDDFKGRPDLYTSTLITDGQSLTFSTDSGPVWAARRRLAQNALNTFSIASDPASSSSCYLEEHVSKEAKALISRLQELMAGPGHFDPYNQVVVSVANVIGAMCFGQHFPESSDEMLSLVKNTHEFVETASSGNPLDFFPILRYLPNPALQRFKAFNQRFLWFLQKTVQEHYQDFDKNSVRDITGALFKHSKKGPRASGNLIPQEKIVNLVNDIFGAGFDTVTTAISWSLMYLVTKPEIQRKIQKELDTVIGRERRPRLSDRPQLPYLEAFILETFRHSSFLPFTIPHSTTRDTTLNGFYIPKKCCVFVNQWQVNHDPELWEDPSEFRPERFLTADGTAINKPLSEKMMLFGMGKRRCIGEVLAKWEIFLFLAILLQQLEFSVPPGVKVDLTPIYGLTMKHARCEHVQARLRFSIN

[1] = molecular target: T2, Heat shock factor protein 1 (Mus musculus, UniProt P38532); experiment: decrease of HSF1-responsive luciferase luminescence – cell-based, NIH3T3, dose retest, confirmation (AID 2382); format: functional;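 further: NIH3T3 fibroblasts with HSF1-driven luciferase reporter stressed by proteasome inhibitor MG132; luminescence from HSF1-driven luciferase expression after 8 hours of MG132 stress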
T2 sequence (P38532 whole entry): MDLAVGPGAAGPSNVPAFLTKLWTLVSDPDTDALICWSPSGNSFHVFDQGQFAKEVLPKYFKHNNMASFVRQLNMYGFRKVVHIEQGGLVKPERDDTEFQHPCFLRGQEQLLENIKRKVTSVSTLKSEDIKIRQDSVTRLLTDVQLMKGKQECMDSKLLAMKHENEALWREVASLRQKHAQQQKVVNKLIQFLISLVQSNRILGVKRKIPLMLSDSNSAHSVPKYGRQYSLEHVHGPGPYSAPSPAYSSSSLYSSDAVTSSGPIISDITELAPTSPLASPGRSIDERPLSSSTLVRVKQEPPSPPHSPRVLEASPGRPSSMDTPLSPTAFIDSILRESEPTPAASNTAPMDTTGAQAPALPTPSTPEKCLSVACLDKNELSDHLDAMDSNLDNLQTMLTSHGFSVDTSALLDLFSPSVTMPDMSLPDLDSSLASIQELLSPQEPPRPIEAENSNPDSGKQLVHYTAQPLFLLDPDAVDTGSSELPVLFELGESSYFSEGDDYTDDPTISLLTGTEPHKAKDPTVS

Cytochrome P450 3A4 = Cytochrome P450 3A4 (Homo sapiens, UniProt P08684);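 further: CYP3A4 tested as one member of a cytochrome P450 panel screen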
Chain of Cytochrome P450 3A4 (P08684 whole entry): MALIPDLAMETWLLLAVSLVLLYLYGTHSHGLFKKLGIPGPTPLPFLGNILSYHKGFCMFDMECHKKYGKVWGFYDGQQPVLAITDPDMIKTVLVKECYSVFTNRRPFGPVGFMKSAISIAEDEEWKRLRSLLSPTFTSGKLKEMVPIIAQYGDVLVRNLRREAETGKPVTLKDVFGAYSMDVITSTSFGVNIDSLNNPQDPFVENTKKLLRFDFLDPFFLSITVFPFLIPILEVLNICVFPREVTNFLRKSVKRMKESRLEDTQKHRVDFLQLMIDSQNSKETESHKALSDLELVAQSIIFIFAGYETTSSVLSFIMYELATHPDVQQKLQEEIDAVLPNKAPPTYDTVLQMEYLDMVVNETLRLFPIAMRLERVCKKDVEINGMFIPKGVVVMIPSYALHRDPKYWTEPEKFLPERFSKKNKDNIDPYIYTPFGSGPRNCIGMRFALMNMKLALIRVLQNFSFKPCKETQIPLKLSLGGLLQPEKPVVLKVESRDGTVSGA

Cytochrome P450 2C9 = Cytochrome P450 2C9 (Homo sapiens, UniProt P11712)
Chain of Cytochrome P450 2C9 (P11712 whole entry): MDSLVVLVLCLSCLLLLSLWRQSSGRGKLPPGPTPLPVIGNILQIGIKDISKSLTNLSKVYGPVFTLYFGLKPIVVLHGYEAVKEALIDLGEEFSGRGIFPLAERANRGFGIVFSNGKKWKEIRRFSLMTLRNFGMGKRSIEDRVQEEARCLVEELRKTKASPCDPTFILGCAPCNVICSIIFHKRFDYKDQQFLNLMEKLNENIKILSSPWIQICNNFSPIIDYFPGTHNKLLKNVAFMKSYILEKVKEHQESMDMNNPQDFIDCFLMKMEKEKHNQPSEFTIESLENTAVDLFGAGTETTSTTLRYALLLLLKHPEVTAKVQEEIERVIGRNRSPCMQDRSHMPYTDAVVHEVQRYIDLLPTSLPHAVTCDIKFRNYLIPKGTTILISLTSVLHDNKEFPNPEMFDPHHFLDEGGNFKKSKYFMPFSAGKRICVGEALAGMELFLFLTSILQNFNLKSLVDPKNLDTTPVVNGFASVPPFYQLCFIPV

[2] = tested on: Streptococcus sp. 'group A'; experiment: Streptococcus pyogenes SK(-)GAS viability under kanamycin – luminescence, BacTiterGlo, confirmation, counter-screen for streptokinase expression inhibitor project, dose response (AID 1900); format: functional, organism-based
Streptococcus = experiment: GAS UMAA2166 growth inhibition – luminescence, BacTiterGlo, counter-screen for streptokinase expression inhibitor project, dose response (AID 1915); format: functional, organism-based;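 further: potency for reduction of bacterial viability or growth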
[3] = viability of uninfected HEp-2 cells – cell-based, HTS, cytotoxicity control for RSV inhibitor project, dose response (AID 2410); format: functional; conditions: human respiratory syncytial virus
Streptokinase A = molecular target: T3, Streptokinase A (Streptococcus pyogenes serotype M1, UniProt P10520); experiment: viability-normalized secreted streptokinase activity reduction – plasminogen activation absorbance, OD405, dose response (AID 1914); format: functional, Streptococcus pyogenes M1 GAS;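 further: secreted streptokinase activity via plasminogen activation per viability signal from cell pellet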
T3 sequence (P10520 whole entry): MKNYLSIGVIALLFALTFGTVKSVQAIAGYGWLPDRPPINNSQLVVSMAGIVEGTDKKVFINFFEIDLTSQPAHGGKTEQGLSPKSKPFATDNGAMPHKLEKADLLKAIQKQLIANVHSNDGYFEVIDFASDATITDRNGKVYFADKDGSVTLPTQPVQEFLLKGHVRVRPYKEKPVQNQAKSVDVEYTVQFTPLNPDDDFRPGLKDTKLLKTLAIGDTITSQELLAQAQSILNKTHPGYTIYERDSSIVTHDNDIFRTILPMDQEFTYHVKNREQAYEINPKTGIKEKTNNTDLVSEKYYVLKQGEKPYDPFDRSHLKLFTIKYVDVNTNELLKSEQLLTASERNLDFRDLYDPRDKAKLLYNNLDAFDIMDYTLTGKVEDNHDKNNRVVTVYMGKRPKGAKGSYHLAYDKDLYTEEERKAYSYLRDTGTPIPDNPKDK

Cytochrome P450 2D6 = Cytochrome P450 2D6 (Homo sapiens, UniProt P10635);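 further: CYP2D6 member of a cytochrome P450 panel assay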
Chain of Cytochrome P450 2D6 (P10635 whole entry): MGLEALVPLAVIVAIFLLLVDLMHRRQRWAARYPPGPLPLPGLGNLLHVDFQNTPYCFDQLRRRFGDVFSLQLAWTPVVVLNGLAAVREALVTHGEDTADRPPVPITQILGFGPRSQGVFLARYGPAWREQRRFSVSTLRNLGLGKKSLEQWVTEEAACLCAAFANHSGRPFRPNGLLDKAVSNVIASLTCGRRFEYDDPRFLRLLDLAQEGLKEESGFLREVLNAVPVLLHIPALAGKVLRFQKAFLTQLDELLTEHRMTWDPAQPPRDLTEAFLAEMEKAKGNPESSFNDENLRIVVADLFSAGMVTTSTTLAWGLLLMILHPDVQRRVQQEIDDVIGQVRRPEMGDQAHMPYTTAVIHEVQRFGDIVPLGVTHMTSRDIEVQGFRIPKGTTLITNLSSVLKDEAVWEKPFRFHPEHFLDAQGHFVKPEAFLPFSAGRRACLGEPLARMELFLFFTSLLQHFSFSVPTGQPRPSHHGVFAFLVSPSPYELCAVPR

[4] = Luminescence Cell-Based Dose Response HTS to Identify Activators of Luciferase Translation or Activity in H4 […] Cells. [Related pubchem assays: 1829 (Project Summary), 1814 (Primary HTS)]; format: functional
H4 = experiment: Luminescence Cell-Based Dose Response HTS to Identify Activators of 5'UTR Stem-Loop Driven Prion Protein mRNA Translation in H4 Neuroglioblastoma Cells. [Related pubchem assays: 1829 (Project Summary), 1814 (Primary HTS)]; format: functional; conditions: Homo sapiens

COc1ccc(N2CC(C(=O)OCC(=O)c3cccc(OC)c3)CC2=O)cc1 (centres undefined)
AC50 (Cytochrome P450 2C19; read-out: AC50): 8.91 µM (inconclusive)

Cc1ccc(OCC(=O)NNC(=O)CCC(=O)Nc2ccc(C)cc2C)cc1
AC50 (Cytochrome P450 2C19): inconclusive

O=C(O)[C@H]([C@H]1NCCS1)N1C(=O)c2ccccc2C1=O
AC50 (Cytochrome P450 1A2): 5.01 µM (inconclusive)

O=C(NCCCN1CCC(Cc2ccccc2)CC1)C1CC(=O)N(C2CCCC2)C1 (centres undefined)
EC50 [1]: > 195 µM (not active)

CCSc1ccc2c(c1)N(CCCN1CCN(C)CC1)c1ccccc1S2
AC50 (Cytochrome P450 3A4): 10 µM (inconclusive) | AC50 (Cytochrome P450 2C19; read-out: AC50): 3.16 µM (inconclusive)

CC(=O)C1C(c2ccccc2OC(F)F)NC(=O)NC1(O)C(F)(F)F (centres undefined)
AC50 (Cytochrome P450 1A2): 5.01 µM (inconclusive) | AC50 (Cytochrome P450 2C9): 15.8 µM (inconclusive)

CSc1cccc(NC(=S)N2CCC(N(C)C3CCCC3)CC2)c1
EC50 [1]: > 195 µM (not active)

C[C@H]1[C@H](C)CC[C@]2(C(=O)O)CC[C@]3(C)C(=CC[C@@H]4[C@@]5(C)CC[C@H](O)C(C)(C)[C@@H]5CC[C@]43C)[C@H]12 [URSOLIC ACID]
EC50 [2]: 0.949 µM (active) | EC50 (Streptococcus): 0.88 µM (active) | CC50 [3]: 28.4 µM (active)

COc1cccc(-c2cccc(NC(=O)C3CCN(Cc4ccon4)CC3)c2)c1
EC50 [1]: > 195 µM (not active)

Sc1nnc(-c2ccncc2)n1Cc1ccco1
EC50 [1]: > 195 µM (not active)

Cc1ccccc1N1CCN(C(=O)c2ccccc2NC(=O)/C=C\C(=O)O)CC1
AC50 (Cytochrome P450 2C19; read-out: AC50): 28.2 µM (inconclusive)

CC(C)c1c(C(=O)N/N=C/c2cccc(OCc3ccc(F)cc3)c2)nnn1-c1nonc1N
EC50 [2]: 4.9 µM (active) | EC50 (Streptococcus): 23.1 µM (active) | EC50 (Streptokinase A): 2.1 µM (active)

CCCOc1ccc(N2C(=O)CC(SC(=N)N/N=C(\C)c3cccs3)C2=O)cc1 (centres undefined)
AC50 (Cytochrome P450 1A2): 15.8 µM (inconclusive) | AC50 (Cytochrome P450 2D6): 15.8 µM (inconclusive)

Cc1ncc(CSC(=N)N)n1Cc1ccccc1
AC50 (Cytochrome P450 2C19; read-out: AC50): 7.94 µM (inconclusive)

S=C(N/N=C/c1ccc(Br)cc1)N1CCCCC1
EC50 [4]: 0.174 µM (active) | EC50 (H4): 96.7 µM (active)

O=C(Nc1nc(-c2ccccn2)cs1)C12CC3CC(CC(O)(C3)C1)C2
EC50 [2]: > 150 µM (not active) | EC50 (Streptococcus): > 150 µM (not active) | EC50 (Streptokinase A): > 150 µM (not active)

COc1ccc(C(=O)N2CCCC(Nc3ccc(C)c(C)c3)C2)cc1F (centres undefined)
EC50 [2]: > 150 µM (not active) | EC50 (Streptococcus): > 150 µM (not active) | EC50 (Streptokinase A): > 150 µM (not active)

Cc1ccc(C(=O)N(CN2CCCC2=O)c2ccccc2)cc1C
AC50 (Cytochrome P450 1A2): 5.01 µM (inconclusive) | AC50 (Cytochrome P450 2C9): 0.00562 µM (inconclusive)

CC(=O)c1cc(C)ccc1OC(=O)CCN1C(=O)C2C3c4ccccc4C(c4ccccc43)C2C1=O (centres undefined)
AC50 (Cytochrome P450 3A4): 31.6 µM (inconclusive) | AC50 (Cytochrome P450 2C19; read-out: AC50): 10 µM (inconclusive)

COc1ccc(N2CCN(C(=O)Cc3csc(NC(=O)Nc4ccccc4OC)n3)CC2)cc1
EC50 [2]: > 150 µM (not active) | EC50 (Streptococcus): 32.7 µM (active) | EC50 (Streptokinase A): > 150 µM (not active)

CCN(CC)CCOC(=O)[C@@H](Cc1cccc2ccccc12)C[C@@H]1CCCO1 [NAFTIDROFURYL]
AC50 (Cytochrome P450 1A2): 10 µM (inconclusive) | AC50 (Cytochrome P450 2D6): 5.01 µM (inconclusive)

CCOC(=O)C(=NC(C)(C)C)NNc1cc(Cl)ccc1Cl
EC50 [2]: 4.52 µM (active) | EC50 (Streptococcus): 21.1 µM (active) | EC50 (Streptokinase A): 7.59 µM (active)

COc1ccccc1NC(=O)COC(=O)c1ccc(S(=O)(=O)NCc2ccco2)cc1
AC50 (Cytochrome P450 1A2): 12.6 µM (inconclusive) | AC50 (Cytochrome P450 2D6): 11.2 µM (inconclusive)

COc1ccc(C/C(C)=N/NC(=S)Nc2ccccc2F)cc1
EC50 [1]: 96.9 µM (active)

COc1cc(NC(=O)n2ncc3cc(Cl)ccc32)cc(OC)c1
EC50 [4]: 17.4 µM (active) | EC50 (H4): 12.5 µM (active)

COC(=O)CCCC1=CC2=C(c3ccccc3)C(=O)C(C)(OC(=O)C3CCCC3)C(=O)C2=CN1c1ccc(OC)cc1 (centres undefined)
EC50 [1]: > 195 µM (not active)

FC(F)(F)c1ccccc1-c1nccc(NCc2ccccc2)n1
AC50 (Cytochrome P450 2C9): 1 µM (inconclusive) | AC50 (Cytochrome P450 3A4): 31.6 µM (inconclusive) | AC50 (Cytochrome P450 2D6): 25.1 µM (inconclusive)

O=C(NC1CCCCC1)C(c1ccco1)N(C(=O)c1csnn1)c1ccc(Cl)cc1 (centres undefined)
EC50 [1]: > 195 µM (not active)

CC1=NN=C(c2ccc(N)cc2)c2cc3c(cc2C1)OCO3 [GYKI-52466]
AC50 (Cytochrome P450 1A2): 31.6 µM (inconclusive) | AC50 (Cytochrome P450 2D6): 25.1 µM (inconclusive) and 31.6 µM (inconclusive)

Cc1ccc(/C=C2/Sc3ccc(C(=O)N4CCN(C)CC4)cc3NC2=O)cc1
EC50 [2]: 7.17 µM (active) | EC50 (Streptococcus): 14.2 µM (active) | EC50 (Streptokinase A): > 150 µM (not active)

CCOC(=O)Nc1nc(-c2ccccc2)c(C)s1
AC50 (Cytochrome P450 2C9): 7.94 µM (inconclusive) | AC50 (Cytochrome P450 2C19; read-out: AC50): 3.98 µM (inconclusive)

C[C@@H]1CC[C@H]2C(=O)NC[C@@H](O)CN2[C@@H]1c1ccc(Br)cc1
AC50 (Cytochrome P450 2C9): 5.01 µM (inconclusive) | AC50 (Cytochrome P450 3A4): 3.98 µM (inconclusive) | AC50 (Cytochrome P450 2D6): 3.16 µM (inconclusive)

CCCC(=O)Nc1c(C)n[nH]c1C
AC50 (Cytochrome P450 2C19; read-out: AC50): 3.98 µM (inconclusive)

COc1ccccc1N1CCN(C(c2ccc(N(C)C)cc2)c2nnnn2CCc2ccccc2)CC1 (centres undefined)
EC50 [1]: > 195 µM (not active)

COc1ccc(C(C)N=C(S)NC2CCCCC2)cc1OC (centres undefined)
EC50 [1]: > 195 µM (not active)

OC1/C(=C/c2ccccc2C(F)(F)F)N2CCC1CC2 (centres undefined)
EC50 [1]: > 195 µM (not active)

N[C@@H](C(=O)O)c1ccc(P(=O)(O)O)cc1
AC50 (Cytochrome P450 1A2): 20 µM (inconclusive) | AC50 (Cytochrome P450 2C9): 31.6 µM (inconclusive)

Oc1ccccc1/C=N/NC(=S)NC1CC2CCC1C2 (centres undefined)
EC50 [2]: 4.8 µM (active) | EC50 (Streptococcus): 8.53 µM (active) | EC50 (Streptokinase A): > 150 µM (not active)

COC(=O)[C@H](C)NC(=O)NCCC1=CCCCC1
EC50 [1]: > 195 µM (not active)

COc1cc(Cn2cnnn2)ccc1O
AC50 (Cytochrome P450 1A2): 39.8 µM (inconclusive) | AC50 (Cytochrome P450 2C9): 0.178 µM (inconclusive)

Cc1ccc(C2=NN(S(C)(=O)=O)C(c3cccs3)C2)cc1 (centres undefined)
AC50 (Cytochrome P450 1A2): 31.6 µM (inconclusive) | AC50 (Cytochrome P450 2D6): 14.1 µM (inconclusive)

COc1ccc(N2CCN(C(=O)c3cccc(Br)c3)CC2)c([N+](=O)[O-])c1
EC50 [1]: > 195 µM (not active)

FC(F)(F)c1cc(-c2ccccc2)nc(N2CCCCCC2)n1
EC50 [2]: 4.27 µM (active) | EC50 (Streptococcus): 14.3 µM (active) | EC50 (Streptokinase A): 5.14 µM (active)

COc1cc(C(=O)NC(=S)Nc2cccc(-c3cc4ccccc4oc3=O)c2)cc(OC)c1OC
AC50 (Cytochrome P450 1A2): 2.82 µM (inconclusive)

COc1ccccc1CNc1ccnc(-c2ccc(C(=O)N(C)C)cc2)n1
AC50 (Cytochrome P450 2D6): 39.8 µM (inconclusive) | AC50 (Cytochrome P450 2C19; read-out: AC50): 39.8 µM (inconclusive)

CCn1c(O)c(C(c2ccccn2)c2c(O)n(CC)c(=S)[nH]c2=O)c(=O)[nH]c1=S
AC50 (Cytochrome P450 2C9): 31.6 µM (inconclusive) | AC50 (Cytochrome P450 2C19; read-out: AC50): 0.00562 µM (inconclusive)
